In US20230293599A1, “BACTERIAL COMPOSITIONS WITH ANTI-INFLAMMATORY ACTIVITY” (Universiteit Gent, priority 2020, published 2023):
Like-named read-outs stand apart in the source and are kept apart here. Residues, ends and D or L forms follow the SMILES beside them.

How the values were obtained:
[1] = tested on: P. aeruginosa; test: Biolog Phenotype Microarray PM1-2 growth on carbon sources; format: cell-based, Pseudomonas aeruginosa
Protocol: (§1) Using Phenotype Microarray (PM) panels (Biolog), the influence of 190 carbon sources on the growth of the potential probiotic species R. mucilaginosa, R. dentocariosa, R. gilardii, G. haemolysans, and common respiratory pathogens P. aeruginosa, and S. aureus was determined. PM1 and PM2 panels (Biolog) were inoculated according to the manufacturer's instructions. Growth curves were generated for 35 hours by measuring the absorbance at 590 nm using an EnVision (Perkin Elmer) plate reader.

[2] = tested on: R. gilardii; test: as above; format: cell-based, Roseomonas gilardii
Protocol: as §1

[3] = tested on: S. aureus; format: cell-based, Staphylococcus aureus
Protocol: as §1

[4] = tested on: R. dentocariosa; test: Biolog Phenotype Microarray PM1-2 growth on carbon sources; format: cell-based, Rothia dentocariosa
Protocol: as §1

[5] = 35 hours, absorbance 590 nm, n = 1, cells without values AUC < 50

Compound	AUC of growth curve, P. aeruginosa [1, 5]	AUC of growth curve, S. aureus [3]	further results
C[N+](C)(C)CC(O)CC(=O)[O-] (racemic) [D,L-Carnitine]	574.6		
O=C(O)CC(O)C(=O)O (racemic) [D,L-Malic Acid]	852.7	696.0	AUC of growth curve, R. gilardii [2, 5]: 169.8
NCC(O)c1ccc(O)cc1 (racemic) [D,L-Octopamine]	1142.2	166.2	
NCCO [2-Aminoethanol]	293.7		
O=C[C@@H](O)[C@H](O[C@@H]1O[C@H](CO)[C@H](O)[C@H](O)[C@H]1O)[C@H](O)CO [3-0-β-D-Galacto-pyranosyl-D-Arabinose]	188.8	446.3	
CC(=O)C(C)O (stereo not shown) [3-Hydroxy 2-Butanone]	183.2	255.6	
O=C(O)c1ccc(O)cc1 [4-Hydroxy Benzoic Acid]	909.3	140.6	
CC(N)=O [Acetamide]	123.0	93.1	
OC[C@H]1O[C@@H](Oc2ccc(O)cc2)[C@H](O)[C@@H](O)[C@@H]1O [Arbutin]		282.2	AUC of growth curve, R. dentocariosa [4, 5]: 55.2
CC(O)(CC(=O)O)C(=O)O (stereo not shown) [Citramalic Acid]	183.9		
O=C(O)CC(O)(CC(=O)O)C(=O)O [Citric Acid]	846.5	169.0	AUC of growth curve, R. gilardii [2, 5]: 156.2
C[C@@H](N)C(=O)O [D-Alanine]	668.1	464.9	
N[C@H](CC(=O)O)C(=O)O [D-Aspartic Acid]	101.3	242.2	
OC[C@H]1O[C@@H](O[C@H]2[C@H](O)[C@@H](O)[C@H](O)O[C@@H]2CO)[C@H](O)[C@@H](O)[C@@H]1O [D-Cellobiose]	70.0		AUC of growth curve, S. aureus [3, 5]: 495.8
O=C1O[C@@H]([C@H](O)CO)[C@H](O)[C@H]1O [D-Galactonic-Acid-γ-Lactone]			AUC of growth curve, P. aeruginosa [1]: 397.9
O=C[C@H](O)[C@@H](O)[C@@H](O)[C@H](O)C(=O)O [D-Galacturonic Acid]	598.2	165.1	AUC of growth curve, R. dentocariosa [4, 5]: 57.0
O=C(O)[C@H](O)[C@@H](O)[C@H](O)[C@H](O)CO [D-Gluconic Acid]		321.0	AUC of growth curve, P. aeruginosa [1]: 617.8
O=C[C@H](O)[C@@H](O)[C@H](O)[C@H](O)COP(=O)(O)O [D-Glucose-6-Phosphate]	399.6	168.0	
O=C[C@H](O)[C@@H](O)[C@H](O)[C@H](O)C(=O)O [D-Glucuronic Acid]	543.2	292.7	
COC(=O)[C@@H](C)O [D-Lactic Acid Methyl Ester]	1081.7	517.2	
OC[C@@H](O)[C@@H](O)[C@H](O)[C@H](O)CO [D-Mannitol]	420.0	884.6	
OC[C@H]1O[C@@](CO)(O[C@H]2O[C@H](CO)[C@@H](O)[C@H](O)[C@H]2O)[C@@H](O[C@H]2O[C@H](CO)[C@@H](O)[C@H](O)[C@H]2O)[C@@H]1O [D-Melezitose]		969.2	AUC of growth curve, R. dentocariosa [4, 5]: 57.2
O=C(O)[C@@H](O)[C@@H](O)[C@H](O)[C@@H](O)C(=O)O [D-Saccharic Acid]	108.8	57.3	
OC[C@@H](O)[C@@H](O)[C@H](O)[C@@H](O)CO [D-Sorbitol]	129.8	412.2	
OC[C@@H](O)[C@H](O)[C@H](O)[C@@H](O)CO [Dulcitol]	72.0		
O=C(O)/C=C/C(=O)O [Fumaric Acid]	1085.5	687.9	AUC of growth curve, R. dentocariosa [4, 5]: 202.9
NCC(=O)O [Glycine]	101.6	743.1	

Compound	AUC of growth curve, P. aeruginosa [1, 5]	AUC of growth curve, S. aureus [3]	further results
NCC(=O)N[C@@H](CC(=O)O)C(=O)O [Glycyl-L-Aspartic Acid] (H-Gly-Asp-OH)		840.3	AUC of growth curve, P. aeruginosa [1]: 538.0
NCC(=O)N1CCC[C@H]1C(=O)O [Glycyl-L-Proline] (H-Gly-Pro-OH)		292.4	AUC of growth curve, P. aeruginosa [1]: 387.4; AUC of growth curve, R. dentocariosa [4]: 72.5
OC[C@H]1O[C@@H](n2cnc3c(O)ncnc32)[C@H](O)[C@@H]1O [Inosine]	141.0	1075.0	
C=C(CC(=O)O)C(=O)O [Itaconic Acid]	790.8		
C[C@H](N)C(=O)O [L-Alanine]	775.3	564.0	
N=C(N)NCCC[C@H](N)C(=O)O [L-Arginine]		816.4	AUC of growth curve, P. aeruginosa [1]: 285.4
NC(=O)C[C@H](N)C(=O)O [L-Asparagine]	1032.0	684.0	
N[C@@H](CC(=O)O)C(=O)O [L-Aspartic Acid]	730.7	464.1	
O=C1O[C@H]([C@@H](O)CO)[C@@H](O)[C@@H]1O [L-Galactonic Acid γ-Lactone]		176.4	AUC of growth curve, P. aeruginosa [1]: 549.8; AUC of growth curve, R. gilardii [2]: 212.2
N[C@@H](CCC(=O)O)C(=O)O [L-Glutamic Acid]	788.3		AUC of growth curve, S. aureus [3, 5]: 644.7
NC(=O)CC[C@H](N)C(=O)O [L-Glutamine]	987.8	697.1	
N[C@@H](Cc1c[nH]cn1)C(=O)O [L-Histidine]	773.2	467.3	
N[C@@H](CCO)C(=O)O [L-Homoserine]	82.5	194.1	
CC[C@H](C)[C@H](N)C(=O)O [L-Isoleucine]	86.2	113.8	
CC(C)C[C@H](N)C(=O)O [L-Leucine]	125.5	231.5	
CSCC[C@H](N)C(=O)O [L-Methionine]	52.6	254.7	
O=C1CC[C@@H](C(=O)O)N1 [L-Pyroglutamic Acid]	1438.7	427.9	
O=C(CO)[C@@H](O)[C@H](O)[C@@H](O)CO [L-Sorbose]		458.7	AUC of growth curve, P. aeruginosa [1]: 94.3; AUC of growth curve, R. dentocariosa [4]: 52.1
O=C(O)CC(=O)O [Malonic Acid]	234.7	470.9	
CC(=O)N[C@@H](CCC(=O)O)C(=O)O [N-Acetyl-L-Glutamic Acid]	272.5	184.1	
NCCCCN [Putrescine]	656.8	274.2	
NC(=O)CCC(=O)O [Succinamic Acid]	53.6	490.3	
O=C(O)CC(CC(=O)O)C(=O)O [Tricarballylic Acid]	510.7	177.0	
NCCc1ccc(O)cc1 [Tyramine]	684.5		
O=C(O)Cc1cccc(O)c1 [m-Hydroxy Phenyl Acetic Acid]	114.0		
O=C(O)Cc1ccc(O)cc1 [p_Hydroxy Phenyl Acetic Acid]	987.9		
COC1OC(CO)C(O)C(O)C1O [α-Methyl-D-Galactoside]		229.9	AUC of growth curve, R. gilardii [2, 5]: 73.3
